Experimental data taken from patent US10450344B2, “Antibody-binding polypeptide, antibody-binding fusion polypeptide, and adsorption material” (FUJIFILM Corporation, priority 2014, dated 2019).
Square brackets hold non-standard residues; d marks the D form. Peptide text beside a SMILES is read from it. PEG8 = NCCOCCOCCOCCOCCOCCOCCOCCOCCC(=O)O

How the values were obtained:
human IgG antibody = assay: SPR evaluation of antibody binding properties of ligand immobilized on CM5 sensor chip; settings: for dissociation rate Koff: SPR, human IgG antibody, 25° C., HEPES buffer, fitting with BIAevaluation4.1
Experimental: The association rate Kon [nM/s] and the dissociation rate Koff [l/s ] of an antibody were calculated from the binding reaction curve, and also the dissociation constant Kd [nM] in the binding reaction of polypeptide 1 with a human IgG antibody was calculated.

[1] = target: Bovine Serum Albumin (BSA) (Bos taurus, UniProt P02769); assay: SPR evaluation of selectivity (binding of BSA to immobilized carrier)
Sequence of Bovine Serum Albumin (BSA) (P02769 25-607): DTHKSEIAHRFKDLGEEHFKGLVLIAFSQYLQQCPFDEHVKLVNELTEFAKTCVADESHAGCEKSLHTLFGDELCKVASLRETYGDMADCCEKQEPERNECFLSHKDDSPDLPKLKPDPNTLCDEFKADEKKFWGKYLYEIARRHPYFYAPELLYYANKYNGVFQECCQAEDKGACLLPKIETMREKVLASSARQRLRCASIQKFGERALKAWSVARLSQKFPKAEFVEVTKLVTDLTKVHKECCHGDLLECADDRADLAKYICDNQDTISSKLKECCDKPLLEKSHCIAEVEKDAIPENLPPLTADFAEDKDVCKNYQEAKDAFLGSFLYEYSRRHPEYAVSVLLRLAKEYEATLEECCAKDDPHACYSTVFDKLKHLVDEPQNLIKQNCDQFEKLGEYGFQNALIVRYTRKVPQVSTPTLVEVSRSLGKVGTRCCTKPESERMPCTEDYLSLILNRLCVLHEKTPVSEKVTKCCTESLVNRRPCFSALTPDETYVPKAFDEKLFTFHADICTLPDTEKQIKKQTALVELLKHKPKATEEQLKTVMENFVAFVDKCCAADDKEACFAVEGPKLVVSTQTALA
Experimental: A commercially available CM5 (carboxymethyl dextran introduction type, manufactured by GE Healthcare) sensor chip was set on a surface plasmon resonance (SPR) apparatus Biacore (manufactured by GE Healthcare), HEPES buffer (20 mM HEPES-HCl, 150 mM NaCl, pH 7.4) for SPR was stabilized at a flow rate of 10 μL/min, and 70 μL of a mixed aqueous solution of 0.2 M 1-ethyl-3-(3-dimethylaminopropyl)carbodiimide (EDC, manufactured by Wako Pure Chemical Industries, Ltd.) and 0.04 M N-hydroxysuccinimide (NHS, manufactured by Wako Pure Chemical Industries, Ltd.) was added. Then, 500 μL of a sample solution of polypeptide 1 diluted to 100 μM with the above-mentioned HEPES buffer and treated with a 0.20 μm PTFE filter (manufactured by [sequence]) was supplied to a carrier sample, blocked by an ethanolamine solution, and washed with an aqueous sodium hydroxide solution, followed by immobilization to prepare an immobilized carrier.
1000 nM of Bovine Serum Albumin (BSA, manufactured by Sigma-Aldrich) was added to the immobilized carrier A prepared in the above (1) at 25° C. over 10 min, and the binding amount after 10 minutes in HEPES buffer was measured by SPR.

[2] = Evaluation of alkali resistance (1N NaOH, then antibody-binding amount by SPR); assay type: physicochemical
Experimental: The synthesized polypeptide 1 was immersed in 1N NaOH at room temperature for 1 hour, and then the ligand was immobilized as in the above (1).

[3] = Evaluation of temporal stability (solution stored at 40° C. for one month, then antibody-binding amount by SPR)
Experimental: A solution of the synthesized polypeptide 1 was stored in a constant-temperature zone (40° C.) for one month, and then the ligand was immobilized as in the above (1).

| Compound | dissociation rate Koff (human IgG antibody) [s⁻¹] | also measured |
| --- | --- | --- |
| Ac-EQQNAFYEILHK-OH [Example 21] | 0.00016 | – |
| H-DQQSAFY-OH [Example 12, DQQSAFY] | 0.00015 | – |
| H-KKKEQQNAFYKKK-OH [Example 6] | 0.00015 | – |
| Ac-KKKEQQNAFYEILHKKK-OH [Example 23] | 0.00016 | – |
| H-QQNAFYEI-OH [Comparative Example 4, reference compound] | 0.00024 | selectivity (in words) [1]: poor; antibody binding properties (in words) (human IgG antibody): poor |
| H-EQNAFY-OH [Example 9, EQNAFY] | 0.00017 | – |
| H-EQQNAFYGGGKGGGEQQNAFY-OH [Example 8] | 0.00015 | – |
| H-EQSAFY-OH [Example 15, EQSAFY] | 0.00014 | – |
| H-KEQQNAFY-OH [Example 2] | 0.00013 | – |
| H-EAQQSAFY-OH [Example 14] | 0.00014 | – |
| H-KKKEQQNAFYEILHKKK-OH [Example 7] | 0.00016 | – |
| Comparative Example 1: wild-type protein A (manufactured by Repligen Corporation) [reference compound] | 0.00025 | – |
| H-DQSAFY-OH [Example 18, DQSAFY] | 0.00019 | – |
| CC(=O)N[C@@H](CCC(=O)O)C(=O)N[C@@H](CCC(N)=O)C(=O)N[C@@H](CCC(N)=O)C(=O)N[C@@H](CC(N)=O)C(=O)N[C@@H](C)C(=O)N[C@@H](Cc1ccccc1)C(=O)N[C@@H](Cc1ccc(O)cc1)C(=O)NCCOCCOCCOCCOCCOCCOCCOCCOCCC(=O)N[C@@H](CCCCN)C(=O)NCCOCCOCCOCCOCCOCCOCCOCCOCCC(=O)N[C@@H](CCC(=O)O)C(=O)N[C@@H](CCC(N)=O)C(=O)N[C@@H](CCC(N)=O)C(=O)N[C@@H](CC(N)=O)C(=O)N[C@@H](C)C(=O)N[C@@H](Cc1ccccc1)C(=O)N[C@@H](Cc1ccc(O)cc1)C(=O)O [Example 25, Ac-EQQNAFY-(peg)8-K-(peg)8-EQQNAFY] (Ac-EQQNAFY[PEG8]K[PEG8]EQQNAFY-OH) | 0.00019 | – |
| Ac-EQQNAFYK-OH [Example 20] | 0.00014 | – |
| H-EQQNAFYEILH-OH [Example 3] | 0.00017 | – |
| H-EQQNAFYEILHL-OH [Example 4] | 0.00013 | – |
| H-EAQQNAFY-OH [Example 16] | 0.00019 | – |
| NCCNc1nc(NCCc2ccc(O)cc2)nc(Nc2ccccc2)n1 [Comparative Example 3] | 0.00065 | selectivity (in words) [1]: insufficient; antibody binding properties (in words) (human IgG antibody): insufficient; alkali resistance (in words) [2]: sufficient; temporal stability (in words) [3]: sufficient |
| Ac-KKKEQQNAFYKKK-OH [Example 22] | 0.00015 | – |
| H-EQQSAFYEILH-OH [Example 11] | 0.00018 | – |
| H-DAQQSAFY-OH [Example 17] | 0.00013 | – |
| H-EQQNAFY-OH [Example 1, EQQNAFY] | 0.00017 | – |
| H-EGQNAFY-OH [Example 5, EGQNAFY] | 0.0002 | – |
| H-DQQSAFYEILH-OH [Example 13] | 0.00015 | – |
| H-EQQNAFY-NH2 [Example 19, EQQNAFY-NH2] | 0.00015 | – |
| C[C@H](NC(=O)[C@H](CC(N)=O)NC(=O)[C@H](CCC(N)=O)NC(=O)[C@H](CCC(N)=O)NC(=O)[C@H](CCC(=O)O)NC(=O)CCOCCOCCOCCOCCOCCOCCOCCOCCN)C(=O)N[C@@H](Cc1ccccc1)C(=O)N[C@@H](Cc1ccc(O)cc1)C(=O)N[C@@H](CCC(=O)O)C(=O)O [Example 24] (H-[PEG8]EQQNAFYE-OH) | 0.00013 | – |
| H-EQQSAFY-OH [Example 10, EQQSAFY] | 0.00015 | – |
